This passage reports Binding % results from patent US10646488B2 (Araxes Pharma LLC, priority 2016, dated 2020).

For the first assay, the target named is T1, KRAS G12C 1-169, his-tagged protein, GDP-loaded (Homo sapiens, UniProt P01116, G12C).
T1 construct: KRAS G12C 1-169, his-tagged protein, GDP-loaded
The assay can be described thus: Covalent binding (% modification) to KRAS G12C by mass spectrometry. Also: test concentration or dose not given here. The following applies: % modification at 10 min (footnote †).
Consider `C[C@@H]1CN(c2nc(N3CC(N(C)C)C3)nc3c(F)c(-c4c(O)cccc4F)c(Cl)cc23)[C@@H](C)CN1C(=O)C1CO1` (stereo partly drawn) [Compound 115, ((2R,5S)-4-(6-chloro-2-(3-(dimethylamino)azetidin-1-yl)-8-fluoro-7-(2-fluoro-6-hydroxyphenyl)quinazolin-4-yl)-2,5-dimethyl-piperazin-1-yl) (oxiran-2-yl) methanone], for which the Binding % entry is “+ (+ indicates binding activity greater than 0% and up to 50%)”.

Staying with this assay, now noted: covalent binding to KRAS G12C after a ten minute incubation period.
Consider `C=CC(=O)N1[C@H](C)CN(c2nc(NC3CCN(C4CC4)CC3)nc3c(F)c(-c4c(C)ccc5cn[nH]c45)c(Cl)cc23)C[C@@H]1C` [Compound 19, 1-((2S,6R)-4-(6-Chloro-2-((1-Cyclopropylpiperidin-4-Yl)Amino)-8-Fluoro-7-(6-Methyl-1H-Indazol-7-Yl)Quinazolin-4-Yl)-2,6-Dimethylpiperazin-1-Yl)Prop-2-En-1-One], for which the Binding % entry is on record as “++ (++ indicates binding activity from 50 to 90%)”.
`C=CC(=O)N1CCN(c2nc(N3CC(N(C)C)C3)nc3c(F)c(-c4c(O)cccc4F)c(Cl)cc23)C[C@H]1C` [Compound 56, 1-((2R)-4-(6-chloro-2-(3-(dimethylamino)azetidin-1-yl)-8-fluoro-7-(2-fluoro-6-hydroxyphenyl)quinazolin-4-yl)-2-methylpiperazin-1-yl)prop-2-en-1-one]: the Binding % result is “+++ (+++ indicates binding activity greater than 90%)”.
The same measure, in the same setting: as for `C=CC(=O)N1C[C@@H](C)N(c2nc(OCCN(CC)CC)nc3c(F)c(-c4c(O)cccc4F)c(Cl)cc23)[C@@H](C)C1` [Compound 16, 1-((3S,5R)-4-(6-chloro-2-(2-(diethylamino)ethoxy)-8-fluoro-7-(2-fluoro-6-hydroxyphenyl)quinazolin-4-yl)-3,5-dimethylpiperazin-1-yl)prop-2-en-1-one], the entry is “++ (++ indicates binding activity from 50 to 90%)”; as for `C=CC(=O)N1C[C@@H](C)N(c2nc(N3CC(N(C)C)C3)nc3c(F)c(-c4c(C)ccc5[nH]ncc45)c(Cl)cc23)[C@@H](C)C1` [Compound 40, 1-((3S,5R)-4-(6-chloro-2-(3-(dimethylamino)azetidin-1-yl)-8-fluoro-7-(5-methyl-1H-indazol-4-yl)quinazolin-4-yl)-3,5-dimethyl-piperazin-1-yl) prop-2-en-1-one], “++ (++ indicates binding activity from 50 to 90%)”; as for `C=CC(=O)N1[C@H](C)CN(c2nc(N3CC(N(C)C)C3)nc3c(F)c(-c4c(C)ccc5cn[nH]c45)c(Cl)cc23)C[C@@H]1C` [Compound 27, 1-((2R,6S)-4-(6-chloro-2-(3-(dimethylamino)azetidin-1-yl)-8-fluoro-7-(6-methyl-1H-indazol-7-yl)quinazolin-4-yl)-2,6-dimethyl-piperazin-1-yl) prop-2-en-1-one], “++ (++ indicates binding activity from 50 to 90%)”.
As to `C=CC(=O)N1CCN(c2nc(NC3CCN(C4CC4)CC3)nc3c(F)c(-c4c(C)ccc5[nH]ncc45)c(Cl)cc23)[C@@H](C)C1` (atropisomer, axis not shown) [Compound 13, 1-((S)-4-(6-chloro-2-(1-cyclopropyl-piperidin-4-ylamino)-8-fluoro-7-((R)-5-methyl-1H-indazol-4-yl)quinazolin-4-yl)-3-methyl-piperazin-1-yl) prop-2-en-1-one], the Binding % result is on record as “+++ (+++ indicates binding activity greater than 90%)”.
Turning to `C=CC(=O)N1C[C@@H](C)N(c2nc(N3CC(N(C)C)C3)nc3c(F)c(-c4c(C)ccc5cn[nH]c45)c(Cl)cc23)[C@@H](C)C1` [Compound 44, 1-((3S,5R)-4-(6-chloro-2-(3-(dimethylamino)azetidin-1-yl)-8-fluoro-7-(6-methyl-1H-indazol-7-yl)quinazolin-4-yl)-3,5-dimethyl-piperazin-1-yl) prop-2-en-1-one], the Binding % result is recorded as “++ (++ indicates binding activity from 50 to 90%)”.
For the compound `C=CC(=O)N1CCN(c2nc(NC3CCN(C4CC4)CC3)nc3c(F)c(-c4c(C)ccc5[nH]ncc45)c(Cl)cc23)[C@@H](C)C1` (atropisomer, axis not shown) [Compound 14, 1-((S)-4-(6-chloro-2-((1-cyclopropyl-piperidin-4-yl)amino)-8-fluoro-7-((S)-5-methyl-1H-indazol-4-yl)quinazolin-4-yl)-3-methyl-piperazin-1-yl) prop-2-en-1-one], the Binding % result is “+ (+ indicates binding activity up to 50%)”.

The same assay, now with this note: covalent binding to KRAS G12C after a three minute incubation period.
As to `C=CC(=O)N1C[C@H](C)N(c2nc(N3CC(N(C)C)C3)nc3c(F)c(-c4cc(B5OC(C)(C)C(C)(C)O5)cc5ccccc45)c(Cl)cc23)C[C@H]1C` [Compound 179, 1-((2R,5S)-4-(6-chloro-2-(3-(dimethylamino)azetidin-1-yl)-8-fluoro-7-(3-(4,4,5,5-tetramethyl-1,3,2-dioxaborolan-2-yl)naphthalen-1-yl)quinazolin-4-yl)-2,5-dimethyl-piperazin-1-yl) prop-2-en-1-one], the Binding % entry was “+ (+ indicates binding activity greater than 0% and up to 50%)”.
Same read-out and setting: as for `C=CC(=O)N1C[C@H](C)N(c2nc(N3CC(N(C)C4CCC4)C3)nc3c(F)c(-c4c(O)cccc4F)c(Cl)cc23)C[C@H]1C` [Compound 110, 1-((2R,5S)-4-(6-chloro-2-(3-(cyclobutyl (methyl)amino)azetidin-1-yl)-8-fluoro-7-(2-fluoro-6-hydroxyphenyl)quinazolin-4-yl)-2,5-dimethyl-piperazin-1-yl) prop-2-en-1-one], the entry is “++ (++ indicates binding activity from 50 to 90%)”.
Turning to `C=CC(=O)N1C[C@H](C)N(c2nc(OCCN3CC(F)(F)C3)nc3c(F)c(-c4c(O)cccc4F)c(Cl)cc23)C[C@H]1C` (atropisomer, axis not shown) [Compound 90, 1-((2R,5S)-4-(6-chloro-2-(2-(3,3-difluoroazetidin-1-yl)ethoxy)-8-fluoro-7-((S)-2-fluoro-6-hydroxyphenyl)quinazolin-4-yl)-2,5-dimethyl-piperazin-1-yl) prop-2-en-1-one], the Binding % entry was “+++ (+++ indicates binding activity greater than 90%)”.
Consider `C=CC(=O)N1C[C@H](C)N(c2nc(N3CC4(CCCN(C)C4)C3)nc3c(F)c(-c4c(C)ccc5[nH]ncc45)c(Cl)cc23)C[C@H]1C` [Compound 194, 1-((2R,5S)-4-(6-chloro-8-fluoro-7-(5-methyl-1H-indazol-4-yl)-2-(6-methyl-2,6-diazaspiro[3.5]nonan-2-yl)quinazolin-4-yl)-2,5-dimethyl-piperazin-1-yl) prop-2-en-1-one], for which the Binding % entry is “++ (++ indicates binding activity from 50 to 90%)”.
Same read-out and setting: in the case of `C=CC(=O)N1C[C@H](C)N(c2nc(N3CC(N(C)C)C3)nc3c(F)c(-c4ccc(Cl)cc4F)c(Cl)cc23)C[C@H]1C` [Compound 161, 1-((2R,5S)-4-(6-chloro-7-(4-chloro-2-fluoro-phenyl)-2-(3-(dimethylamino)azetidin-1-yl)-8-fluoroquinazolin-4-yl)-2,5-dimethyl-piperazin-1-yl) prop-2-en-1-one] it was “+ (+ indicates binding activity greater than 0% and up to 50%)”; in that of `C=CC(=O)N1C[C@H](C)N(c2nc(OCCCN3CCC(F)(F)C3)nc3c(F)c(-c4c(C)ccc5[nH]ncc45)c(Cl)cc23)C[C@H]1C` [Compound 231, 1-((2R,5S)-4-(6-chloro-2-(3-(3,3-difluoropyrrolidin-1-yl)propoxy)-8-fluoro-7-(5-methyl-1H-indazol-4-yl)quinazolin-4-yl)-2,5-dimethyl-piperazin-1-yl) prop-2-en-1-one], “++ (++ indicates binding activity from 50 to 90%)”; in that of `C=CC(=O)N1C[C@H](C)N(c2nc(N3CC4(CCN(C5CC5)CC4)C3)nc3c(F)c(-c4c(O)cccc4F)c(Cl)cc23)C[C@H]1C` [Compound 173, 1-((2R,5S)-4-(6-chloro-2-(7-cyclopropyl-2,7-diazaspiro[3.5]nonan-2-yl)-8-fluoro-7-(2-fluoro-6-hydroxyphenyl)quinazolin-4-yl)-2,5-dimethyl-piperazin-1-yl) prop-2-en-1-one], “++ (++ indicates binding activity from 50 to 90%)”.
With `C=CC(=O)N1C[C@H](C)N(c2nc(OCCCN3CCC(F)(F)C3)nc3c(F)c(-c4c(O)cccc4F)c(Cl)cc23)C[C@H]1C` [Compound 230, 1-((2R,5S)-4-(6-chloro-2-(3-(3,3-difluoropyrrolidin-1-yl)propoxy)-8-fluoro-7-(2-fluoro-6-hydroxyphenyl)quinazolin-4-yl)-2,5-dimethyl-piperazin-1-yl) prop-2-en-1-one], the Binding % result is recorded as “++ (++ indicates binding activity from 50 to 90%)”.
With `C=CC(=O)N1C[C@H](C)N(c2nc(N3CC(N(C)C)C3)nc3c(F)c(-c4cc(O)cc5ccccc45)c(Cl)cc23)C[C@H]1C` (atropisomer, axis not shown) [Compound 220, 1-((2R,5S)-4-(6-chloro-2-(3-(dimethylamino)azetidin-1-yl)-8-fluoro-7-((R)-3-hydroxynaphthalen-1-yl)quinazolin-4-yl)-2,5-dimethyl-piperazin-1-yl) prop-2-en-1-one], the Binding % result is “+ (+ indicates binding activity greater than 0% and up to 50%)”.
In the case of `C=CC(=O)N1C[C@H](C)N(c2nc(N3CC(N(C)C)C3)nc3c(F)c(-c4c(F)cccc4F)c(Cl)cc23)C[C@H]1C` [Compound 180, 1-((2R,5S)-4-(6-chloro-7-(2,6-difluorophenyl)-2-(3-(dimethyl-amino)azetidin-1-yl)-8-fluoro-quinazolin-4-yl)-2,5-dimethyl-piperazin-1-yl) prop-2-en-1-one], the Binding % entry is “+ (+ indicates binding activity greater than 0% and up to 50%)”.
Consider `C=CC(=O)N1C[C@H](C)N(c2nc(N3CC(N(C)C)C3)nc3c(F)c(-c4cc(O)cc5ccccc45)c(Cl)cc23)C[C@H]1C` [Compound 147, 1-((2R,5S)-4-(6-chloro-2-(3-(dimethylamino)azetidin-1-yl)-8-fluoro-7-(3-hydroxynaphthalen-1-yl)quinazolin-4-yl)-2,5-dimethyl-piperazin-1-yl) prop-2-en-1-one], for which the Binding % entry is listed as “+++ (+++ indicates binding activity greater than 90%)”.
